According to patent US11384078B2, “5,6-fused-bicyclic compounds and compositions for the treatment of parasitic diseases” (NOVARTIS AG, priority 2017, dated 2022):
Like-named read-outs stand apart in the source and are kept apart here.

Tests used:
Type in all cases: cell-based
[1] = test system: Leishmania donovani axenic amastigote; experiment: In vitro assay for growth inhibition of Leishmania donovani axenic amastigote (Cell TiterGlo luminescence); conditions: Leishmania donovani, L. donovani axenic amastigotes in vitro; read-out: L. donovani amastigotes EC50
Method in brief: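 Axenic L. donovani amastigotes (9600/well) grown at 37 °C, 5% CO2 in supplemented RPMI 1640, pH 5.5, with compound added from DMSO. After two days, viability read by CellTiter-Glo luminescence against DMSO and control-compound wells.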

[2] = test system: L. donovani HU3 strain in mouse peritoneal macrophages; experiment: Assay for inhibition of parasitemia of Leishmania donovani in mouse macrophages (SYBR Green nuclei count, high-content imaging); conditions: Leishmania donovani, Peritoneal macrophage, L. donovani in mouse peritoneal macrophages; read-out: L. donovani in Mouse Macrophages EC50
Method in brief: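 Peritoneal macrophages from uninfected BALB/c mice were infected for 24 h with spleen-derived L. donovani HU3 (4×10^5 parasites per 2×10^4 macrophages), then cultured with compound for 5 days at 37° C, 5% CO2. After fixation and permeabilization, parasite nuclei were stained with SYBR Green and counted by high-content imaging.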

[3] = test system: Trypanosoma cruzi amastigotes cultured in 3T3 fibroblast cells; experiment: Assay for growth inhibition of kinetoplastid parasite Trypanosoma cruzi (beta-galactosidase Tulahuen strain, CPRG readout); conditions: Trypanosoma cruzi, Fibroblast, T. cruzi amastigotes in 3T3 fibroblast cells; read-out: Buckner infectious T. cruzi EC50
Method in brief: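 3T3 fibroblasts (1,000 cells/well) plated overnight, treated with compound in DMSO, then infected with 10,000 Lac-Z-expressing Tulahuen trypomastigotes. After 6 days, 0.6 mM CPRG with 0.6% NP-40 added for 2 h at room temperature; absorbance gives relative intracellular amastigote numbers. Benznidazole and nifurtimox serve as positive controls.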

[4] = test system: Trypanosoma brucei brucei (Lister 427) strain; experiment: Assay for growth inhibition against Trypanosoma brucei brucei (Cell TiterGlo ATP luminescence); conditions: T. brucei brucei (Lister 427), read-out: T. Brucei (HAT) EC50
Method in brief: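 T. b. brucei Lister 427 grown in HMI-9 with 10% FBS and 10% serum plus, seeded at 10,000 parasites/mL with 10-point threefold compound dilutions in duplicate, 37 °C for 2 days. Viability read as ATP luminescence 30 min after Cell TiterGlo; IC50 versus untreated controls.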

| Structure (SMILES) | EC50 [1] | EC50 [2] | EC50 [3] | EC50 ([4]; Trypanosoma brucei) | EC50 [4] |
| --- | --- | --- | --- | --- | --- |
| O=C(Nc1ccc(F)c(-n2cc3cc(N4CCOCC4)cnc3n2)c1)N1CC(F)(F)C1 [Compound 145, 3,3-difluoro-N-{4-fluoro-3-[5-(morpholin-4-yl)-2H-pyrazolo[3,4-b]pyridin-2-yl]phenyl}azetidine-1-carboxamide] | 5.4 nM | 4.7 nM | 18 nM | < 23 nM | – |
| O=C(Nc1ccc(F)c(-n2cc3cc(C4CCCCC4)cnc3n2)c1)N1CC(F)C1 [Compound 19, N-(3-{5-cyclohexyl-2H-pyrazolo[3,4-b]pyridin-2-yl}-4-fluorophenyl)-3-fluoroazetidine-1-carboxamide] | 11 nM | 81 nM | 11 nM | < 23 nM | – |
| O=C(Nc1ccc(F)c(-n2cc3cc(-c4ccccn4)cnc3n2)c1)[C@@H]1C[C@H]1F (single isomer, unassigned) [Compound 256] | 11 nM | 38 nM | 5 nM | 27 nM | – |
| C[C@@H]1CN(c2cnc3nn(-c4cc(NC(=O)N5CC(F)C5)ccc4F)cc3c2)C[C@H](C)O1 [Compound 230, N-(3-{5-[(2R,6S)-2,6-dimethylmorpholin-4-yl]-2H-pyrazolo[3,4-b]pyridin-2-yl]-4-fluorophenyl)-3-fluoroazetidine-1-carboxamide] | 37 nM | 22 nM | 47 nM | – | 5 nM |
| O=C(Nc1ccc(F)c(-n2cc3cc(N4C[C@@H]5C[C@H]4CO5)cnc3n2)c1)N1CC(F)C1 [Compound 172, 3-fluoro-N-(4-fluoro-3-{5-[(1S,4S)-2-oxa-5-azabicyclo[2.2.1]heptan-5-yl]-2H-pyrazolo[3,4-b]pyridin-2-yl]phenyl)azetidine-1-carboxamide] | 6.7 nM | 11 nM | 33 nM | < 23 nM | – |
| CC(C)(C)OC(=O)N1CCCC1c1cnc2nn(-c3cc(NC(=O)N4CCC4)ccc3F)cc2c1 (centres unmarked) [Compound 247, tert-butyl 2-(2-{5-[(azetidine-1-carbonyl)amino]-2-fluorophenyl}-2H-pyrazolo[3,4-b]pyridin-5-yl)pyrrolidine-1-carboxylate] | 40 nM | 23 nM | 14 nM | 5 nM | – |
| CC(C)c1cnc2nn(-c3cc(NC(=O)C4CCCCO4)ccc3F)cc2c1 (centres unmarked) [Compound 80, N-{4-fluoro-3-[5-(propan-2-yl)-2H-pyrazolo[3,4-b]pyridin-2-yl]phenyl}oxane-2-carboxamide] | 410 nM | 410 nM | 92 nM | 170 nM | – |
| O=C(Nc1ccc(F)c(-n2cc3cc(N4CC5(CC5)C4)cnc3n2)c1)N1CC(F)(F)C1 [Compound 258, N-[3-(5-{5-azaspiro[2.3]hexan-5-yl}-2H-pyrazolo[3,4-b]pyridin-2-yl)-4-fluorophenyl}-3,3-difluoroazetidine-1-carboxamide] | 23 nM | 39 nM | 12 nM | 28 nM | – |
| O=C(Nc1ccnc(-n2cc3cc(-c4ccccn4)cnc3n2)c1)N1CC(F)(F)C1 [Compound 281, 3,3-difluoro-N-(2-(5-(pyridin-2-yl)-2H-pyrazolo[3,4-b]pyridin-2-yl)pyridin-4-yl)azetidine-1-carboxamide] | 9 nM | 26 nM | 15 nM | 14 nM | – |
| N#Cc1ccc(C(=O)Nc2ccc(F)c(-n3cc4cc(-c5ccccn5)cnc4n3)c2)o1 [Compound 206, 5-cyano-N-{4-fluoro-3-[5-(pyridin-2-yl)-2H-pyrazolo[3,4-b]pyridin-2-yl]phenyl}furan-2-carboxamide] | 2 nM | 13 nM | 1 nM | 5 nM | – |
| O=C(Nc1ccc(F)c(-n2cc3cc(CC(F)(F)F)cnc3n2)c1)N1CC(F)C1 [Compound 152, 3-fluoro-N-(4-fluoro-3-(5-(2,2,2-trifluoroethyl)-2H-pyrazolo[3,4-b]pyridin-2-yl)phenyl)azetidine-1-carboxamide] | 3.7 nM | 5.3 nM | 1.7 nM | < 23 nM | – |
| CN(C)c1cnc2nn(-c3cc(NC(=O)C4CC4)ccc3F)cc2c1 [Compound 331, N-{3-[5-(dimethylamino)-2H-pyrazolo[3,4-b]pyridin-2-yl]-4-fluorophenyl}cyclopropanecarboxamide] | 217 nM | 910 nM | 138 nM | 206 nM | – |
| Cc1cccnc1-c1cnc2nn(-c3cc(NC(=O)C4=CC(C)(C)C4)ccc3F)cc2c1 [Compound 350, N-{4-fluoro-3-[5-(3-methylpyridin-2-yl)-2H-pyrazolo[3,4-b]pyridin-2-yl]phenyl}-3,3-dimethylcyclobut-1-ene-1-carboxamide] | 16 nM | 58 nM | 16 nM | 28 nM | – |
| CC(C)c1cnc2nn(-c3cc(NC(=O)CC4CC4)ccc3F)cc2c1 [Compound 69, 2-cyclopropyl-N-{4-fluoro-3-[5-(propan-2-yl)-2H-pyrazolo[3,4-b]pyridin-2-yl]phenyl}acetamide] | 170 nM | 150 nM | 68 nM | 40 nM | – |
| O=C(Nc1ccc(F)c(-n2cc3cc(-c4ccccn4)cnc3n2)c1)N1CC(F)(F)C1 [Compound 39, 3,3-difluoro-N-(4-fluoro-3-(5-(pyridin-2-yl)-2H-pyrazolo[3,4-b]pyridin-2-yl)phenyl)azetidine-1-carboxamide] | 2.4 nM | 3.8 nM | 2 nM | < 23 nM | – |
| O=C(Nc1ccc(F)c(-n2cc3cc(C4CC4)cnc3n2)c1)N1CC[C@@H](F)C1 [Compound 42, (3R)-N-(3-{5-cyclopropyl-2H-pyrazolo[3,4-b]pyridin-2-yl}-4-fluorophenyl)-3-fluoropyrrolidine-1-carboxamide] | 3 nM | 6 nM | 1.8 nM | < 23 nM | – |
| O=C(Nc1ccc(F)c(-n2cc3cc(N4CCN(CC(F)(F)F)CC4)cnc3n2)c1)N1CC(F)C1 [Compound 237, 3-fluoro-N-(4-fluoro-3-{5-[4-(2,2,2-trifluoroethyl)piperazin-1-yl]-2H-pyrazolo[3,4-b]pyridin-2-yl}phenyl)azetidine-1-carboxamide] | 16 nM | 9 nM | 21 nM | 5 nM | – |
| O=C(Nc1ccc(F)c(-n2cc3cc(N4CCOCC4)cnc3n2)c1)N1CCC1 [Compound 137, N-{4-fluoro-3-[5-(morpholin-4-yl)-2H-pyrazolo[3,4-b]pyridin-2-yl]phenyl}azetidine-1-carboxamide] | 8.8 nM | 6 nM | 5.1 nM | < 23 nM | – |
| CN(C)c1cnc2nn(-c3cc(NC(=O)N4CCC4)ccc3F)cc2c1 [Compound 170, N-{3-[5-(dimethylamino)-2H-pyrazolo[3,4-b]pyridin-2-yl]-4-fluorophenyl}azetidine-1-carboxamide] | 8 nM | 11 nM | 4.6 nM | < 23 nM | – |
| O=C(Nc1ccc(F)c(-n2cc3cc(C4CC4)cnc3n2)c1)N1CC(F)C1 [Compound 15, N-(3-{5-cyclopropyl-2H-pyrazolo[3,4-b]pyridin-2-yl}-4-fluorophenyl)-3-fluoroazetidine-1-carboxamide] | 13 nM | 17 nM | 5 nM | < 23 nM | – |
